Target: T1, DC-SIGN (Homo sapiens, UniProt Q9NNX6)
T1 sequence (Q9NNX6 254-404): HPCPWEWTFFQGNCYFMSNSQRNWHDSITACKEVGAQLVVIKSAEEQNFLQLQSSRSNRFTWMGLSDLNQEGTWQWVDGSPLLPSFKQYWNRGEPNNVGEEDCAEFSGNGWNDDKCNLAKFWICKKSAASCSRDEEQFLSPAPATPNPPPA
Test: 1H-15N HSQC NMR titration
Assay type: binding

Q: For `C[C@@H]1OC(O)[C@@H](O)[C@H](O)[C@@H]1O` (stereo partly shown) [compound 4, Fuc], which Kd is on record?
A: 4.1 ± 0.7 mM
